Data: patent publication US6436921B1, “Carbapenem derivatives and a preparation method thereof” (Korea Institute of Science and Technology, priority 1997, dated 2002)
Values after ≈ are worked out from the molar mass of the structure shown.

Columns and labels:
[1] = test system: Enterobacter cloacae 1321E; experiment: Antibacterial activity test (agar dilution MIC); format: cell-based; details: for MIC: read-out: Minimum inhibitory concentration
Description: (§1) Gram-positive Streptococcus and Staphylococcus and Gram-negative Escherichia coli, Pseudomonas, Salmonella, Klebsiella and Enterobacter were selected for the test. After the cells were diluted and cultured in agar, the compounds of the present invention were treated to obtain the minimum inhibitory concentration in the units of μg/ml.

Enterobacter cloacae P99 = experiment: Antibacterial activity test (agar dilution MIC); format: cell-based; details: for MIC: read-out: Minimum inhibitory concentration
Description: as §1

Escherichia coli 078 [2] = experiment: Antibacterial activity test (agar dilution MIC); format: cell-based; details: Escherichia coli 078, agar; for MIC: read-out: Minimum inhibitory concentration
Description: as §1

Escherichia coli 1507E = experiment: Antibacterial activity test (agar dilution MIC); format: cell-based; details: for MIC: read-out: Minimum inhibitory concentration
Description: as §1

Escherichia coli DC0 = experiment: Antibacterial activity test (agar dilution MIC); format: cell-based; details: for MIC: read-out: Minimum inhibitory concentration
Description: as §1

Escherichia coli TEM = experiment: Antibacterial activity test (agar dilution MIC); format: cell-based; details: for MIC: Escherichia coli, read-out: Minimum inhibitory concentration
Description: as §1

[3] = test system: Klebsiella aerogenes 1522E; experiment: Antibacterial activity test (agar dilution MIC); format: cell-based; details: for MIC: read-out: Minimum inhibitory concentration
Description: as §1

Klebsiella oxytoca 1082E = experiment: Antibacterial activity test (agar dilution MIC); format: cell-based; details: for MIC: read-out: Minimum inhibitory concentration
Description: as §1

[4] = test system: Pseudomonas aeruginosa 1592E; experiment: Antibacterial activity test (agar dilution MIC); format: cell-based; details: for MIC: read-out: Minimum inhibitory concentration
Description: as §1

[5] = test system: Pseudomonas aeruginosa 1771M; experiment: Antibacterial activity test (agar dilution MIC); format: cell-based; details: Pseudomonas aeruginosa, 1771M, read-out: Minimum inhibitory concentration
Description: as §1

[6] = test system: Pseudomonas aeruginosa 1771; experiment: Antibacterial activity test (agar dilution MIC); format: cell-based; details: Pseudomonas aeruginosa 1771, agar; for MIC: read-out: Minimum inhibitory concentration
Description: as §1

[7] = test system: Pseudomonas aeruginosa 9027; experiment: Antibacterial activity test (agar dilution MIC); format: cell-based; details: Pseudomonas aeruginosa 9027, agar; for MIC: read-out: Minimum inhibitory concentration
Description: as §1

Salmonella typhimurium = experiment: Antibacterial activity test (agar dilution MIC); format: cell-based; details: for MIC: Salmonella enterica, read-out: Minimum inhibitory concentration
Description: as §1

[8] = test system: Staphylococcus aureus 285; experiment: Antibacterial activity test (agar dilution MIC); format: cell-based; details: Staphylococcus aureus 285, agar; for MIC: read-out: Minimum inhibitory concentration
Description: as §1

[9] = test system: Staphylococcus aureus 503; experiment: Antibacterial activity test (agar dilution MIC); format: cell-based; details: Staphylococcus aureus 503, agar; for MIC: read-out: Minimum inhibitory concentration
Description: as §1

[10] = test system: Staphylococcus aureus SG511; experiment: Antibacterial activity test (agar dilution MIC); format: cell-based; details: for MIC: read-out: Minimum inhibitory concentration
Description: as §1

[11] = test system: Streptococcus faecium MD8b; experiment: Antibacterial activity test (agar dilution MIC); format: cell-based; details: for MIC: Enterococcus faecium, read-out: Minimum inhibitory concentration
Description: as §1

[12] = test system: Streptococcus pyogenes 308A; experiment: Antibacterial activity test (agar dilution MIC); format: cell-based; details: for MIC: read-out: Minimum inhibitory concentration
Description: as §1

[13] = test system: Streptococcus pyogenes 77A; experiment: Antibacterial activity test (agar dilution MIC); format: cell-based; details: for MIC: read-out: Minimum inhibitory concentration
Description: as §1

Escherichia coli DC2 = experiment: Antibacterial activity test (agar dilution MIC); format: cell-based
Description: as §1

[14] = Bioavailability test, subcutaneous injection to mice; format: in vivo
Escherichia coli 078 [15] = experiment: PD50 test using mice; format: in vivo; parameters: PD50: unit not given beside the values
Source text: (§2) This means that ⅓ of the amount of the compound 10 has the same effect as meropenem.
(§3) Streptococcus pyrogenes A 77 and Escherichia coli 078 were selected as gram-positive and gram-negative strains, respectively.

[16] = test system: Streptococcus pyrogenes A 77; experiment: PD50 test using mice; format: in vivo; parameters: PD50: unit not given beside the values
Source text: as §2, §3

renal enzyme (DHP-I) = renal enzyme (DHP-I) (Homo sapiens, UniProt P16444); details: FIG. 1
[17] = molecular target: DHP-I (renal dehydropeptidase-I) (Homo sapiens, UniProt P16444); experiment: in vitro
Chain of DHP-I (renal dehydropeptidase-I) (P16444 17-385): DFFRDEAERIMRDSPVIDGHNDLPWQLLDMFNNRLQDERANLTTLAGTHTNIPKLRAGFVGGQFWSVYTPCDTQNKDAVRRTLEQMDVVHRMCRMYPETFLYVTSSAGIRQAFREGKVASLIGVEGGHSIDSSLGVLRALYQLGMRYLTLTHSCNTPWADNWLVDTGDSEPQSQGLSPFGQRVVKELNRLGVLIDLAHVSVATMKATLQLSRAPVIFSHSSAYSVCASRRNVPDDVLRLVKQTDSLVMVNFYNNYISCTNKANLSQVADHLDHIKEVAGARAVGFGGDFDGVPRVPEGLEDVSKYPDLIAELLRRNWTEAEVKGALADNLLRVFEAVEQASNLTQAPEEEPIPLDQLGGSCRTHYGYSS

Chain of renal enzyme (DHP-I) (P16444 17-385): as above

Structure (SMILES)	MIC [1] [µg/mL]	MIC (Enterobacter cloacae P99) [µg/mL]	MIC (Escherichia coli 078 [2]) [µg/mL]	MIC (Escherichia coli 1507E) [µg/mL]	MIC (Escherichia coli DC0) [µg/mL]	MIC (Escherichia coli TEM) [µg/mL]	MIC [3] [µg/mL]	MIC (Klebsiella oxytoca 1082E) [µg/mL]	MIC [4] [µg/mL]	MIC [5] [µg/mL]	MIC [6] [µg/mL]	MIC [7] [µg/mL]	MIC (Salmonella typhimurium) [µg/mL]	MIC [8] [µg/mL]	MIC [9] [µg/mL]	MIC [10] [µg/mL]	MIC [11] [µg/mL]	MIC [12] [µg/mL]	MIC [13] [µg/mL]	other results
C[C@@H](O)[C@H]1C(=O)N2C(C(=O)O)=C(S[C@@H]3CN[C@H](C(=O)NCCC(N)=O)C3)[C@H](C)[C@H]12 [Compound 1]	0.025 (≈ 0.0586 µM)	0.049 (≈ 0.115 µM)	0.025 (≈ 0.0586 µM)	0.025 (≈ 0.0586 µM)	0.025 (≈ 0.0586 µM)	0.025 (≈ 0.0586 µM)	0.049 (≈ 0.115 µM)	0.098 (≈ 0.23 µM)	0.391 (≈ 0.917 µM)	0.391 (≈ 0.917 µM)	0.781 (≈ 1.83 µM)	0.391 (≈ 0.917 µM)	0.049 (≈ 0.115 µM)	0.195 (≈ 0.457 µM)	0.098 (≈ 0.23 µM)	0.195 (≈ 0.457 µM)	12.5 (≈ 29.3 µM)	0.013 (≈ 0.0305 µM)	0.007 (≈ 0.0164 µM)	–
CNC(=O)CCNC(=O)[C@@H]1C[C@H](SC2=C(C(=O)O)N3C(=O)[C@H]([C@@H](C)O)[C@H]3[C@H]2C)CN1 [Compound 2]	0.025 (≈ 0.0568 µM)	0.049 (≈ 0.111 µM)	0.049 (≈ 0.111 µM)	0.025 (≈ 0.0568 µM)	0.049 (≈ 0.111 µM)	0.025 (≈ 0.0568 µM)	0.049 (≈ 0.111 µM)	0.098 (≈ 0.222 µM)	0.781 (≈ 1.77 µM)	0.391 (≈ 0.888 µM)	0.781 (≈ 1.77 µM)	0.781 (≈ 1.77 µM)	0.049 (≈ 0.111 µM)	0.781 (≈ 1.77 µM)	0.195 (≈ 0.443 µM)	0.391 (≈ 0.888 µM)	12.5 (≈ 28.4 µM)	0.013 (≈ 0.0295 µM)	0.013 (≈ 0.0295 µM)	MIC (Escherichia coli DC2; read-out: Minimum inhibitory concentration): 0.098 µg/mL (≈ 0.222 µM)
C[C@@H](O)[C@H]1C(=O)N2C(C(=O)O)=C(S[C@@H]3CN[C@H](C(=O)NCCC(=O)NCCO)C3)[C@H](C)[C@H]12 [Compound 3]	–	–	–	–	–	–	–	–	–	–	–	–	–	–	–	–	–	–	–	Minimum inhibitory concentration [1]: 0.025 µg/mL (≈ 0.0531 µM); Minimum inhibitory concentration (Enterobacter cloacae P99): 0.049 µg/mL (≈ 0.104 µM); Minimum inhibitory concentration (Escherichia coli 078 [2]): 0.025 µg/mL (≈ 0.0531 µM); Minimum inhibitory concentration (Escherichia coli 1507E): 0.025 µg/mL (≈ 0.0531 µM); Minimum inhibitory concentration (Escherichia coli DC0): 0.049 µg/mL (≈ 0.104 µM); Minimum inhibitory concentration (Escherichia coli DC2): 0.049 µg/mL (≈ 0.104 µM); Minimum inhibitory concentration (Escherichia coli TEM; Escherichia coli TEM, agar): 0.025 µg/mL (≈ 0.0531 µM); Minimum inhibitory concentration [3]: 0.049 µg/mL (≈ 0.104 µM); Minimum inhibitory concentration (Klebsiella oxytoca 1082E): 0.098 µg/mL (≈ 0.208 µM); Minimum inhibitory concentration [4]: 1.563 µg/mL (≈ 3.32 µM); Minimum inhibitory concentration [6]: 1.563 µg/mL (≈ 3.32 µM); Minimum inhibitory concentration [7]: 1.563 µg/mL (≈ 3.32 µM); Minimum inhibitory concentration (Salmonella typhimurium): 0.049 µg/mL (≈ 0.104 µM); Minimum inhibitory concentration [8]: 0.391 µg/mL (≈ 0.831 µM); Minimum inhibitory concentration [9]: 0.195 µg/mL (≈ 0.414 µM); Minimum inhibitory concentration [10]: 0.195 µg/mL (≈ 0.414 µM); Minimum inhibitory concentration [11]: 12.5 µg/mL (≈ 26.6 µM); Minimum inhibitory concentration [12]: 0.013 µg/mL (≈ 0.0276 µM); Minimum inhibitory concentration [13]: 0.007 µg/mL (≈ 0.0149 µM)
C[C@@H](O)[C@H]1C(=O)N2C(C(=O)O)=C(S[C@@H]3CN[C@H](C(=O)NCCS(N)(=O)=O)C3)[C@H](C)[C@H]12 [Compound 10]	–	–	–	–	–	–	–	–	–	–	–	–	–	–	–	–	–	–	–	half-life ([14]; mouse, in vivo, sc): 19.2 ± 2.4 min; AUC ([14]; mouse, in vivo, sc, AUC 0-3 hr): 11900 ± 1130 ng·h/mL; Cmax ([14]; mouse, in vivo, sc, read-out: Cmax): 16000 ± 960 ng/mL; Tmax ([14]; mouse, in vivo, sc, read-out: Tmax): ≤ 19.8 min; times as efficient as meropenem (bioavailability, Table 4) ([14]; versus meropenem): ca. 3 times; PD50 (Escherichia coli 078 [15]; Escherichia coli 078): 0.47; times more efficient than meropenem (PD50 test) (Escherichia coli 078 [15]; gram-negative strain, versus meropenem): 3 times; PD50 ([16]; Streptococcus pyrogenes A 77): 2.31; times more efficient than meropenem (PD50 test) ([16]; gram-positive strain, versus meropenem): 3 times; stability against DHP-I (in words) (renal enzyme (DHP-I)): a little more stable than meropenem against DHP-I and markedly more stable than imipenem; half-life [17]: > 300 min
